# According to US8765730B2 (Hoffmann-La Roche Inc, priority 2010, dated 2014):
# Target: T1, human GPBAR1 receptor (Homo sapiens, UniProt Q8TDU6)
# T1 construct: expressed in transfected cells
# T1 sequence (Q8TDU6 1-330): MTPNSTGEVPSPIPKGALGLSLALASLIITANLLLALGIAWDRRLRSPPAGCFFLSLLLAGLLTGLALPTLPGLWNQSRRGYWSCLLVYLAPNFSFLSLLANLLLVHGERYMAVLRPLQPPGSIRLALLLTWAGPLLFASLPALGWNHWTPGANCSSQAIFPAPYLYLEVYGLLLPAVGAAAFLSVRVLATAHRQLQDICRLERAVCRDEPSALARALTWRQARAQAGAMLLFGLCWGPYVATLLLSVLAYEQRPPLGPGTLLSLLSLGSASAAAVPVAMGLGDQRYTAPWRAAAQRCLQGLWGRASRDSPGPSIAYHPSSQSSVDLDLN
# Assay: functional cAMP assay in CHO-dhfr(minus) cells expressing human GPBAR1 receptors
# Type: cell-based
# Conditions: functional cAMP assay, 30 min at 30° C., read-out: human EC50
# Summary of the method: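 Agonist cAMP read-out: stable GPBAR1 CHO-dhfr− clone, 30 min compound exposure at 30° C following 30 min IBMX (1 mM) preincubation in Krebs Ringer bicarbonate. Time-resolved energy-transfer detection gives EC50; parental CHO cells serve as counter-screen.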
row,SMILES,EC50
1,"CCOC(=O)CCCNC(=O)c1ccc(C(C/C(=N\O)c2ccc(=O)n(C)c2)c2ccccc2C)cc1 (stereo not drawn) [Example 212, 4-{4-[3-[(E)-Hydroxyimino]-3-(1-methyl-6-oxo-1,6-dihydro-pyridin-3-yl)-1-o-tolyl-propyl]-benzoylamino}-butyric acid ethyl ester]",153 nM

# Same assay, conditions: human EC50, functional cAMP assay, 30 min at 30° C.
row,SMILES,EC50
1,"Cn1cc(/C(CC(Cc2ccc(OC(F)(F)F)cc2)c2ccc(Br)cc2)=N/O)ccc1=O (stereo not drawn) [Example 180, 5-[3-(4-Bromo-phenyl)-1-[(E)-hydroxyimino]-4-(4-trifluoromethoxy-phenyl)-butyl]-1-methyl-1H-pyridin-2-one]",3450 nM
2,"CCCC(C/C(=N\O)c1ccc(=O)n(C)c1)c1ccc(Br)cc1F (stereo not drawn) [Example 191, 5-{3-(4-Bromo-2-fluoro-phenyl)-1-[(E)-hydroxyimino]-hexyl}-1-methyl-1H-pyridin-2-one]",375 nM
3,"Cn1cc(/C(CC(c2ccc(Br)cc2F)C2CCCC2)=N/O)ccc1=O (stereo not drawn) [Example 192, 5-{3-(4-Bromo-2-fluoro-phenyl)-3-cyclopentyl-1-[(E)-hydroxyimino]-propyl}-1-methyl-1H-pyridin-2-one]",107 nM
4,"Cc1ccccc1C(C/C(=N\O)c1ccc(=O)n(C)c1)c1ccc(Br)cc1F (stereo not drawn) [Example 193, 5-{3-(4-Bromo-2-fluoro-phenyl)-1-[(E)-hydroxyimino]-3-o-tolyl-propyl}-1-methyl-1H-pyridin-2-one]",19 nM
5,"Cn1cc(/C(CC(c2ccccc2Cl)C2CCCC2)=N/O)ccc1=O (stereo not drawn) [Example 197, 5-{3-(2-Chloro-phenyl)-3-cyclopentyl-1-[(E)-hydroxyimino]-propyl}-1-methyl-1H-pyridin-2-one]",12 nM
6,"Cn1cc(/C(CC(c2ccccc2Cl)C2CC[N+](C)(C)CC2)=N/O)ccc1=O (stereo not drawn) [Example 198, 4-[1-(2-Chloro-phenyl)-3-[(E)-hydroxyimino]-3-(1-methyl-6-oxo-1,6-dihydro-pyridin-3-yl)-propyl]-1,1-dimethyl-piperidinium iodide]",9640 nM
7,"Cc1cc(=O)n(C)cc1/C(CC(c1ccc(Br)cc1)c1ccccc1C)=N/O (stereo not drawn) [Example 199, 5-{3-(4-Bromo-phenyl)-1-[(E)-hydroxyimino]-3-o-tolyl-propyl}-1,4-dimethyl-1H-pyridin-2-one]",23 nM
8,"Cc1cc(=O)n(C)cc1/C(CC(c1ccc(Br)cc1)c1ccccc1C)=N\O (stereo not drawn) [Example 200, 5-{3-(4-Bromo-phenyl)-1-[(Z)-hydroxyimino]-3-o-tolyl-propyl}-1,4-dimethyl-1H-pyridin-2-one]",558 nM
9,"Cn1cc(/C(CC(c2ccc(C(=O)N[C@H]3CC[C@H](O)CC3)c(F)c2)c2ccccc2Cl)=N/O)ccc1=O (stereo partly drawn) [Example 217, Trans-4-[1-(2-Chloro-phenyl)-3-[(E)-hydroxyimino]-3-(1-methyl-6-oxo-1,6-dihydro-pyridin-3-yl)-propyl]-2-fluoro-N-(4-hydroxy-cyclohexyl)-benzamide]",700 nM
10,"CN1CCC(N(C)C(=O)c2ccc(C(C/C(=N\O)c3ccc(=O)n(C)c3)c3ccccc3Cl)cc2F)CC1 (stereo not drawn) [Example 218, (E)-4-(1-(2-Chlorophenyl)-3-(hydroxyimino)-3-(1-methyl-6-oxo-1,6-dihydropyridin-3-yl)propyl)-2-fluoro-N-methyl-N-(1-methylpiperidin-4-yl)benzamide]",1640 nM
11,"Cn1cc(/C(CC(c2ccc(C(=O)NC3CCOCC3)c(F)c2)c2ccccc2Cl)=N/O)ccc1=O (stereo not drawn) [Example 219, (E)-4-(1-(2-Chlorophenyl)-3-(hydroxyimino)-3-(1-methyl-6-oxo-1,6-dihydropyridin-3-yl)propyl)-2-fluoro-N-(tetrahydro-2H-pyran-4-yl)benzamide]",1160 nM
12,"Cn1cc(/C(CC(c2ccc(C(=O)NC3COC3)c(F)c2)c2ccccc2Cl)=N/O)ccc1=O (stereo not drawn) [Example 220, (E)-4-(1-(2-Chlorophenyl)-3-(hydroxyimino)-3-(1-methyl-6-oxo-1,6-dihydropyridin-3-yl)propyl)-2-fluoro-N-(oxetan-3-yl)benzamide]",680 nM
13,"Cc1ccccc1C(C/C(=N\O)c1ccc(=O)n(C)c1)c1ccc(Oc2ccc(C(=O)O)c(F)c2)cc1F (stereo not drawn) [Example 222, 2-Fluoro-4-{3-fluoro-4-[3-[(E)-hydroxyimino]-3-(1-methyl-6-oxo-1,6-dihydro-pyridin-3-yl)-1-o-tolyl-propyl]-phenoxy}-benzoic acid]",3590 nM
14,"Cc1cc(F)ccc1C(C/C(=N\O)c1ccc(=O)n(C)c1)c1ccc(Br)cc1 (stereo not drawn) [Example 224, (E)-5-(3-(4-Bromophenyl)-3-(4-fluoro-2-methylphenyl)-1-(hydroxyimino)propyl)-1-methylpyridin-2(1H)-one]",6 nM
15,"Cc1cc(F)ccc1C(C/C(=N\O)c1ccc(=O)n(C)c1)c1ccc(-c2ccc(C(=O)O)cc2)cc1 (stereo not drawn) [Example 225, (E)-4′-(1-(4-Fluoro-2-methylphenyl)-3-(hydroxyimino)-3-(1-methyl-6-oxo-1,6-dihydropyridin-3-yl)propyl)biphenyl-4-carboxylic acid]",49 nM
16,"Cc1cc(Cl)ccc1C(C/C(=N\O)c1ccc(=O)n(C)c1)c1ccc(Br)cc1 (stereo not drawn) [Example 226, 5-{3-(4-Bromo-phenyl)-3-(4-chloro-2-methyl-phenyl)-1-[(E)-hydroxyimino]-propyl}-1-methyl-1H-pyridin-2-one]",38 nM
17,"Cc1cc(Cl)ccc1C(C/C(=N\O)c1ccc(=O)n(C)c1)c1ccc(-c2ccc(C(=O)O)cc2)cc1 (stereo not drawn) [Example 227, (E)-4′-(1-(4-Chloro-2-methylphenyl)-3-(hydroxyimino)-3-(1-methyl-6-oxo-1,6-dihydropyridin-3-yl)propyl)biphenyl-4-carboxylic acid]",55 nM
18,"COC(=O)CNC(=O)c1ccc(-c2ccc(C(C/C(=N\O)c3ccc(=O)n(C)c3)c3ccc(Cl)cc3C)cc2)cc1 (stereo not drawn) [Example 228, (E)-methyl 2-(4′-(1-(4-chloro-2-methylphenyl)-3-(hydroxyimino)-3-(1-methyl-6-oxo-1,6-dihydropyridin-3-yl)propyl)biphenyl-4-ylcarboxamido)acetate]",18 nM

# Now from value to compound:
row,EC50,SMILES
1,12 nM,"Cn1cc(/C(CC(c2ccc(Br)cc2)c2ccccc2Cl)=N/O)ccc1=O (stereo not drawn) [Example 203, 5-{3-(4-Bromo-phenyl)-3-(2-chloro-phenyl)-1-[(E)-hydroxyimino]-propyl}-1-methyl-1H-pyridin-2-one]"
2,711 nM,"Cc1ccccc1C(C/C(=N\O)c1ccc(=O)n(C)c1)c1ccc(C(=O)N2CCOCC2)cc1 (stereo not drawn) [Example 207, 5-{1-[(E)-Hydroxyimino]-3-[4-(morpholine-4-carbonyl)-phenyl]-3-o-tolyl-propyl}-1-methyl-1H-pyridin-2-one]"
3,93 nM,"Cc1ccccc1C(C/C(=N\O)c1ccc(=O)n(C)c1)c1ccc(C(=O)NCCO)cc1 (stereo not drawn) [Example 208, N-(2-Hydroxy-ethyl)-4-[3-[(E)-hydroxyimino]-3-(1-methyl-6-oxo-1,6-dihydro-pyridin-3-yl)-1-o-tolyl-propyl]-benzamide]"
4,443 nM,"Cc1ccccc1C(C/C(=N\O)c1ccc(=O)n(C)c1)c1ccc(C(=O)N(C)CCO)cc1 (stereo not drawn) [Example 209, N-(2-Hydroxy-ethyl)-4-[3-[(E)-hydroxyimino]-3-(1-methyl-6-oxo-1,6-dihydro-pyridin-3-yl)-1-o-tolyl-propyl]-N-methyl-benzamide]"
5,6890 nM,"Cc1ccccc1C(C/C(=N\O)c1ccc(=O)n(C)c1)c1ccc(C(=O)N2CCC(CC(=O)O)CC2)cc1 (stereo not drawn) [Example 210, (1-{4-[3-[(E)-Hydroxyimino]-3-(1-methyl-6-oxo-1,6-dihydro-pyridin-3-yl)-1-o-tolyl-propyl]-benzoyl}-piperidin-4-yl)-acetic acid]"
6,5980 nM,"Cc1ccccc1C(C/C(=N\O)c1ccc(=O)n(C)c1)c1ccc(C(=O)N(C)CC(=O)O)cc1 (stereo not drawn) [Example 211, ({4-[3-[(E)-Hydroxyimino]-3-(1-methyl-6-oxo-1,6-dihydro-pyridin-3-yl)-1-o-tolyl-propyl]-benzoyl}-methyl-amino)-acetic acid]"
7,1310 nM,"Cc1ccccc1C(C/C(=N\O)c1ccc(=O)n(C)c1)c1ccc(C(=O)NCCCC(=O)O)cc1 (stereo not drawn) [Example 213, 4-{4-[3-[(E)-Hydroxyimino]-3-(1-methyl-6-oxo-1,6-dihydro-pyridin-3-yl)-1-o-tolyl-propyl]-benzoylamino}-butyric acid]"
8,1220 nM,"Cc1ccccc1C(C/C(=N\O)c1ccc(=O)n(C)c1)c1ccc(C(=O)NCCC(=O)O)cc1 (stereo not drawn) [Example 214, 3-{4-[3-[(E)-Hydroxyimino]-3-(1-methyl-6-oxo-1,6-dihydro-pyridin-3-yl)-1-o-tolyl-propyl]-benzoylamino}-propionic acid]"
9,810 nM,"Cc1ccccc1C(C/C(=N\O)c1ccc(=O)n(C)c1)c1ccc(C(=O)NCC(=O)O)cc1 (stereo not drawn) [Example 215, {4-[3-[(E)-Hydroxyimino]-3-(1-methyl-6-oxo-1,6-dihydro-pyridin-3-yl)-1-o-tolyl-propyl]-benzoylamino}-acetic acid]"
10,4080 nM,"Cc1ccccc1C(C/C(=N\O)c1ccc(=O)n(C)c1)c1ccc(OCC(=O)O)cc1F (stereo not drawn) [Example 221, {3-Fluoro-4-[3-[(E)-hydroxyimino]-3-(1-methyl-6-oxo-1,6-dihydro-pyridin-3-yl)-1-o-tolyl-propyl]-phenoxy}-acetic acid]"
11,22 nM,"Cc1cc(Cl)ccc1C(C/C(=N\O)c1ccc(=O)n(C)c1)c1ccc(-c2ccc(C(=O)NCC(=O)O)cc2)cc1 (stereo not drawn) [Example 229, (E)-2-(4′-(1-(4-chloro-2-methylphenyl)-3-(hydroxyimino)-3-(1-methyl-6-oxo-1,6-dihydropyridin-3-yl)propyl)biphenyl-4-ylcarboxamido)acetic acid]"
